Measured values: patent US4980377A, “1-(aminophenyl)-2-aminopropanone derivatives” (Laboratoire L. Lafon, priority 1984, dated 1990)
“Also recorded” adds a separate entry of the source. Counter-ions that a name gives are not always drawn.

Key:
mice [1] = test: Interaction with barbital; assay type: in vivo, mouse; conditions: i.p., barbital 220 mg/kg
Protocol: Half an hour after the administration of CRL 41 153, groups of 10 mice receive an intraperitoneal injection of barbital (220 mg/kg).

mice [2] = test: Four plate test, traction and electric shock; assay type: in vivo, mouse; conditions: i.p.
Protocol: The test is performed on groups of 10 mice 30 minutes after the administration of CRL 41 153.

CNS = test: Neuropsychopharmacological profile as a whole; assay type: in vivo, mice and rats; conditions: conclusion of the tests
Protocol: (§1) In the neuropsychopharmacological study which follows, a solution of CRL 41 153 in distilled water (pH 1.5) was administered intraperitoneally in a volume of 20 ml/kg to male mice and 5 ml/kg to male rats.

mice [3] = test: Interaction with oxotremorine; assay type: in vivo, mouse; conditions: i.p.
Protocol: CRL 41 153 is administered to groups of 6 mice 0.5 hour before the intraperitoneal injection of 0.5 mg/kg of oxotremorine.

rats [4] = test: Overall behavior and reactivities in rats; assay type: in vivo, rat; conditions: dose not stated
Protocol: as §1
(§2) Groups of three animals are observed before and then 0.25 hour, 0.50 hour, 1 hour, 2 hours, 3 hours and 24 hours after the administration of CRL 41 153.

[5] = test system: gravid White New Zealand female rabbits; test: Teratogenicity in gravid White New Zealand rabbits; assay type: in vivo, rabbit; conditions: day 5 to day 18 of gestation; for Affected foetuses, %: normal limit 1.5%
Method in brief: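 Fetuses harvested by cesarean on gestation day 29 were scored for number and for any malformation (limb blockade, anury, tail or skull defects, exencephaly).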

mice [6] = test: Spontaneous motility; assay type: in vivo, mouse; conditions: i.p.
Protocol: 0.5 hour after they have received CRL 41 153, the mice (6 per dose, 12 control animals) are placed in an actimeter, where their motility is recorded for 30 minutes.

mice [7] = test: Motility reduced by habituation to the enclosure; assay type: in vivo, mouse; conditions: i.p.
Protocol: After they have stayed In the actimeters for 18 hours, (he mice (6 per dose, 12 control animals) receive CRL 41 153. They are immediately returned to their respective enclosures and, half an hour later, their motility is recorded for 30 minutes.

mice [8] = test: Interaction with reserpine; assay type: in vivo, mouse; conditions: i.p.
Protocol: Four hours after the intraperitoneal injection of 2.5 mg/kg of reserpine, groups of 6 mice receive CRL 41 153.

rats [9] = test: Interaction with apomorphine in rats; assay type: in vivo, rat; conditions: i.p.
Protocol: CRL 41 153 is administered to groups of 6 rats 0.5 hour before the subcutaneous injection of 0.5 mg/kg of apomorphine.

immunity = test: Immunological study (overall); conditions: in vivo; hydrochloride
mice [10] = test: Motility reduced by hypoxic aggression; assay type: in vivo, mouse; conditions: i.p.
Protocol: Half an hour after they have received CRL 41 153, the mice (10 per dose, 20 control animals) are subjected to acute hypobaric anoxia [pressure reduction of 600 mm Hg (i.e. about 8×10^4 Pa) in 90 seconds; release of vacuum in 45 seconds] and are then placed in an actimeter, where their motility is recorded for 10 minutes.

mice [11] = test: Interaction with apomorphine in mice; assay type: in vivo, mouse; conditions: i.p.
Protocol: Groups of 6 mice receive CRL 41 153 0.5 hour before the subcutaneous injection of 1 or 16 mg/kg of apomorphine.

mice [12] = test: Behavioral despair; assay type: in vivo, mouse; conditions: forcibly immersed mice, i.p.
From the text: Half an hour after they have received CRL 41 153, groups of 6 mice are placed in a beaker filled with water to a height of 6 cm. The total period of immobility between the 2nd and 6th minutes following immersion is noted.

[13] = pH of solutions in distilled water; assay type: physicochemical
Protocol: The neuropsychopharmacological study was undertaken according to the procedures described above for CRL 41 153, CRL 41 213 being adminstered intraperitoneally, in solution in distilled water, in a volume of 20 ml/kg to male mice and a volume of 5 ml/kg to male rats, and the pH of the injected solution varying with the concentration of CRL 41 213 according to the data given in Table II below.

mice [14] = test: Intergroup aggressiveness; assay type: in vivo, mouse; conditions: i.p.
Protocol: After they have stayed for 3 weeks in the two halves of a cage divided by an opaque partition, groups of 3 mice receive CRL 41 153. Half an hour later, the two groups from the same cage are brought together by removal of the partition, and the number of fights which occur in 10 minutes is noted.

mice [15] = test: Asphyxiant anoxia (gallamine triiodoethylate); assay type: in vivo, mouse; conditions: i.p., curarizing agent
Protocol: Groups of 10 mice receive CRL 41 153 half an hour before the intraperitoneal administration of 32 mg/kg of gallamine triiodoethylate (reference curarizing agent).

dogs = test: Cardiovascular study in anesthetized dogs; assay type: in vivo, dog
Protocol: Two dogs (average weight: 14.1 kg), anesthetized with nembutal, receive CRL 41 194 by intraduodenal administration at successive doses of 0.1 mg/kg, 0.5 mg/kg, 1 mg/kg, 2.5 mg/kg, 5 mg/kg and 10 mg/kg (in solution in physiological solvent).
The blood pressure, the heart rate, the blood flow through the femoral artery, the blood flow through the vertebral artery and the rectal temperature are measured. The coloration of the skin and the coloration of the bile, collected by catheterization of the bile duct after ligature of the cystic duct, are observed.
4 dogs (average weight: 14 kg), anesthetized with nembutal, receive CRL 41 221 by intraduodenal administration at successive doses of 0.1 mg/kg, 0.5 mg/kg, 1 mg/kg, 2.5 mg/kg, 5 mg/kg and 10 mg/kg. The blood pressure, the heart rate, the blood flow through the femoral artery, the blood flow through the vertebral artery and the rectal temperature are measured. The coloration of the skin is observed.

mice [16] = test: Overall behavior and reactivities in mice; assay type: in vivo, mouse; conditions: dose not stated
Protocol: as §1, §2

rats [17] = test: Interaction with amphetamine; assay type: in vivo, rat; conditions: i.p.
Protocol: Amphetamine (2 mg/kg) is injected intraperitoneally into groups of 6 rats 30 minutes after the administration of CRL 41 153. […] 4 mg/kg and 16 mg/kg, CRL 41 153 potentiates the intensity and duration of the stereotypies induced by amphetamine.

[18] = anesthetized dogs, intraduodenal
[19] = dogs, after product, isoprenaline 3 μg/kg
[20] = dogs, after product, norepinephrine 2 μg/kg

CC(C)NC(C)C(=O)c1ccc(N)c(Cl)c1 (centres unmarked) [CRL 41 221, 1-(4-amino-3-chlorophenyl)-2-isopropylaminopropanone hydrochloride]
Duration of the sleep induced by barbital (mice [1]): a reduction in the duration of the sleep induced by barbital | Effect on convulsant effects of electric shock (mice [2]): a reduction in the convulsant effects of electric shock | Number of punished passes in the four plate test (mice [2]): a moderate increase in the number of punished passes in the 4 plate test on mice (at a strong dose) | Antidepressant effects (overall) (CNS): antidepressant properties | Stimulant effects (overall) (CNS): large stimulant component | α-adrenergic stimulant effects (overall) (CNS): an α-adrenergic stimulation component | Effect on hypothermic action of oxotremorine (mice [3]): antagonism of the hypothermia | Stereotype movements (summary) (rats [4]): the presence of stereotype movements in mice and rats | Overall behavior: observed effects (summary) (rats [4]; hydrochloride): excitation with hyperreactivity in mice and rats; also recorded: mydriasis and salivation in mice and rats | Affected foetuses, number ([5]; 5 mg/kg daily): 1 | Total foetuses (live) ([5]; 5 mg/kg daily): 91 | Affected foetuses, % ([5]; 5 mg/kg daily): 1.11% | Affected foetuses, number ([5]; 10 mg/kg daily): 1 | Total foetuses (live) ([5]; 10 mg/kg daily): 87 | Affected foetuses, % ([5]; 10 mg/kg daily): 1.14% | Spontaneous motor activity (mice [6]): an increase in the spontaneous motor activity of mice | Motor activity of mice accustomed to their enclosure (mice [7]): resumption in the motor activity of mice accustomed to their enclosure | Effect on hypothermia induced by reserpine (mice [8]): antagonism of the hypothermia | Effect on ptosis induced by reserpine (mice [8]): a decrease in the ptosis induced by reserpine | Effect on stereotypies induced by apomorphine (rats [9]): potentiation of the stereotypies | Immunological effect (overall) (immunity): immunostimulant or immunomodulating effects; also recorded: has an immunomodulating effect and increases the cellular immunity | Motor recovery of mice after hypobaric hypoxia (mice [10]): improvement in the motor recovery of mice subjected to acute hypoxia | Effect on hypothermia induced by apomorphine (mice [11]): antagonism of the hypothermia | Period of immobility due to despair (mice [12]): a reduction in the period of immobility of mice which have been forcibly immersed | pH ([13]; 6 g/liter in distilled water): 5.0 | pH ([13]; 13 g/liter in distilled water): 4.5 | pH ([13]; 50 g/liter in distilled water): 4.0 | pH ([13]; ≤3 g/liter in distilled water): 5.5 | Number of fights / intergroup aggressiveness (mice [14]): a reduction in the aggressiveness | Time taken for convulsions to occur (mice [15]): a reduction in the aggressiveness and (he time taken for convulsions and death to occur | Time taken for death to occur (mice [15]): a reduction in the aggressiveness and (he time taken for convulsions and death to occur | Effect on hypertension induced by norepinephrine (dogs; anesthetized dogs): slightly reduced | Effects of isoprenaline on the blood pressure (dogs; anesthetized dogs): not modified as regards the diastolic blood pressure | Rectal temperature (dogs; anesthetized dogs): the rectal temperature and skin temperature rise gradually | Skin temperature (dogs; anesthetized dogs): the rectal temperature and skin temperature rise gradually | Effects of isoprenaline on the heart rate (dogs; anesthetized dogs, after accumulated dose of 19.1 mg/kg intraduodenal): slightly reduced as regards the heart rate | Blood pressure (dogs; [18]): A reduction in the diastolic blood pressure is observed at 5 mg/kg and hypotension appears at 10 mg/kg | Femoral flow (dogs; [18]): tachycardiac effect as from 2.5 mg/kg, that the femoral flow increases substantially as from this same dose | Heart rate (dogs; [18]): tachycardiac effect as from 2.5 mg/kg | Respiration (dogs; [18]): the respiration is stimulated | Vertebral flow (dogs; [18]): the vertebral flow increases at a dose of 0.5 mg/kg | Effect of propanolol or atenolol on the action of the product (dogs; anesthetized dogs, hydrochloride): The injection of atenolol into 2 dogs reduces the effects of CRL 41 221; also recorded: the injection of propanolol does not increase the β^- effects | Heart rate after isoprenaline (dogs; [19]): 262 beats/minute | Heart rate before isoprenaline (dogs; [19]): 212 beats/minute | Systolic blood pressure after norepinephrine (dogs; [20]): 266 mm Hg | Systolic blood pressure before norepinephrine (dogs; [20]): 158 mm Hg | Vasodilator (conclusion) (dogs; hydrochloride): vasodiating properties; also recorded: consequently a vasodilator | Stereotype movements (summary) (mice [16]): the presence of stereotype movements in mice and rats | Overall behavior: observed effects (summary) (mice [16]; hydrochloride): excitation with hyperreactivity in mice and rats; also recorded: mydriasis and salivation in mice and rats | Effect on stereotypies induced by amphetamine (rats [17]): potentiation of the stereotypies
